Assay results from ChEMBL document CHEMBL2384927, “Development of Unsymmetrical Dyads As Potent Noncarbohydrate-Based Inhibitors against Human β-N-Acetyl-d-hexosaminidase” (ACS Med Chem Lett, 2013).
Active and inactive are the calls of the source. The calls are words filed in the database; no cut-off is given here.

Legend:
[1] = biological target: T1, Beta-N-acetyl-D-hexosaminidase-A/B (Homo sapiens) (UniProt P07686+P06865); test: Inhibition of human beta-N-acetyl-D-hexosaminidase-A/B using 4-Methylumbelliferyl N-acetyl-beta-D-glucosaminide as substrate at 50 uM incubated for 10 mins prior to substrate addition by spectrofluorometric analysis relative to control; format: protein assay
[2] = biological target: T2, Beta-N-acetyl-D-hexosaminidase-A/B (Homo sapiens, UniProt P07686+P06865); test: Inhibition of human beta-N-acetyl-D-hexosaminidase-A/B using 4-Methylumbelliferyl N-acetyl-beta-D-glucosaminide as substrate incubated for 10 mins prior to substrate addition by spectrofluorometric analysis; format: protein assay
T2 sequence (P07686 whole entry): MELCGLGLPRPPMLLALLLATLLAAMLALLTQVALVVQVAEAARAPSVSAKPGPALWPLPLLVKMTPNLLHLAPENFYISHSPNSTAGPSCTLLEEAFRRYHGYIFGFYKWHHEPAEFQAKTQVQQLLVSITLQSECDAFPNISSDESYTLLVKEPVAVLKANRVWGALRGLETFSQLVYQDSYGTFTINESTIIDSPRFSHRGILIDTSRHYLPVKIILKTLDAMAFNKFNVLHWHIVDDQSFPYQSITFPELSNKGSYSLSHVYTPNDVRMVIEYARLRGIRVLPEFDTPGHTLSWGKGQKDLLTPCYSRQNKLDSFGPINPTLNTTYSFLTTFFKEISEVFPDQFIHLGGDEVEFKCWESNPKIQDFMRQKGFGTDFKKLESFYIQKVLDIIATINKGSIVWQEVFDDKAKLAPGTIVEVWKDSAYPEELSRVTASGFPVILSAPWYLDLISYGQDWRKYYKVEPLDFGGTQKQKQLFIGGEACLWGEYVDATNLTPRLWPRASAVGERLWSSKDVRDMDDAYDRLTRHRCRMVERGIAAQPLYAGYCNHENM
T2 sequence (P06865 whole entry): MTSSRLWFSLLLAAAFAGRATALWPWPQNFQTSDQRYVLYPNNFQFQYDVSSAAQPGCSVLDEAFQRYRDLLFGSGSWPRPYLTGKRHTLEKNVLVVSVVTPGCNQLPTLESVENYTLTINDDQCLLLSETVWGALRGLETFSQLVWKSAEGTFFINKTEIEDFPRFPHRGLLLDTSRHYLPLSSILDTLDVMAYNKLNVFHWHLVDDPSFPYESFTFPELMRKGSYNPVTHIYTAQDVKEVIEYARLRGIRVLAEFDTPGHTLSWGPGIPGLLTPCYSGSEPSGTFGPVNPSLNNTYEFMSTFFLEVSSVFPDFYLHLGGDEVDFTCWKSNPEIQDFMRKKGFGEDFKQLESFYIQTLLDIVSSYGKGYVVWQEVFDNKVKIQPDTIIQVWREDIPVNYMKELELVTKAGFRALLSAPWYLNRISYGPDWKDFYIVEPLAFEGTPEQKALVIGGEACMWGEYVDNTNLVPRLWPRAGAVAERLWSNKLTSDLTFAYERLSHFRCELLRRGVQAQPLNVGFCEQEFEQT

[3] = biological target: T3, Beta-hexosaminidase subunit alpha (Homo sapiens, UniProt P06865); test: Competitive inhibition of human beta-N-acetyl-D-hexosaminidase-A using 4-Methylumbelliferyl N-acetyl-beta-D-glucosaminide as substrate assessed as release of 4-Methylumbelliferyl fluorophore measured for 7 mins
T3 sequence (P06865 whole entry): T2 sequence (P06865 whole entry)

[4] = biological target: T4, Beta-hexosaminidase subunit beta (Homo sapiens, UniProt P07686); test: Competitive inhibition of human beta-N-acetyl-D-hexosaminidase-B using 4-Methylumbelliferyl N-acetyl-beta-D-glucosaminide as substrate assessed as release of 4-Methylumbelliferyl fluorophore measured for 7 mins
T4 sequence (P07686 whole entry): T2 sequence (P07686 whole entry)

[5] = biological target: T1, Beta-N-acetyl-D-hexosaminidase-A/B (Homo sapiens); test: Competitive inhibition of human beta-N-acetyl-D-hexosaminidase-A/B using 4-Methylumbelliferyl N-acetyl-beta-D-glucosaminide as substrate at 0.1 mM incubated for 10 mins prior to substrate addition by Dixon plot analysis; format: protein assay

Row | Compound | inhibition [1] | Ki [2] | further results
1 | COc1ccc(SCCCNCCN2C(=O)c3cccc4cccc(c34)C2=O)cc1 | < 50% |  | 
2 | O=C1c2cccc3cccc(c23)C(=O)N1CCO |  | 30.87 µM | 
3 | COc1ccc(NCCNCCN2C(=O)c3cccc4cccc(c34)C2=O)c(OC)c1 |  | 4.63 µM | 
4 | CN(C)c1ccc2c3c(cccc13)C(=O)N(CCN)C2=O | < 50% |  | 
5 | NCCN1C(=O)c2cccc3cccc1c23 | < 50% |  | 
6 | COc1ccc(OCCNCCN2C(=O)c3cccc4cccc(c34)C2=O)cc1OC |  | 0.69 µM | 
7 | COc1cccc(NCCNCCN2C(=O)c3cccc4cccc(c34)C2=O)c1 | < 50% |  | 
8 | COc1ccc(CNCCN2C(=O)c3cccc4cccc(c34)C2=O)cc1OC |  | 4.99 µM | 
9 | O=C1c2cccc3cccc(c23)C(=O)N1CCNCCOc1ccc(OC(F)(F)F)cc1 | < 50% |  | 
10 | COc1ccc(NCCNCCN2C(=O)c3cccc4cccc(c34)C2=O)cc1 |  | 1.08 µM | 
11 | COc1ccc(OCCNCCN2C(=O)c3cccc4cccc(c34)C2=O)cc1 |  | 1.04 µM | 
12 | CN(C)CCN1C(=O)c2cccc3cccc(c23)C1=O |  | 2.81 µM | 
13 | NCCCN1C(=O)c2cccc3cccc(c23)C1=O [NAPHTHALIMIDOPROPYLAMINE] |  | 29.08 µM | 
14 | COc1cccc(OCCCNCCN2C(=O)c3cccc4cccc(c34)C2=O)c1 |  | 4.39 µM | 
15 | NCCCCCCN1C(=O)c2cccc3cccc(c23)C1=O | < 50% |  | 
16 | O=C1c2cccc3cccc(c23)C(=O)N1CCNCCN1C(=O)c2cccc3cccc(c23)C1=O |  | 3.22 µM | IC50 [3]: 6 µM; IC50 [4]: 3.1 µM

Row | Compound | inhibition [1] | Ki [2] | further results
17 | COC(=O)c1ccc(OCCNCCN2C(=O)c3cccc4cccc(c34)C2=O)cc1 |  | 4.2 µM | 
18 | COc1ccc2c3c(cccc13)C(=O)N(CCN)C2=O | < 50% |  | 
19 | O=C1c2cccc3cccc(c23)C(=O)N1CCNCCOc1ccc(Cl)cc1 | < 50% |  | 
20 | NCCN1C(=O)c2ccccc2C1=O | < 50% |  | 
21 | NCCN1C(=O)c2cccc3c(Br)ccc(c23)C1=O | < 50% |  | 
22 | NCCCCN1C(=O)c2cccc3cccc(c23)C1=O |  | 61.74 µM | 
23 | O=C1c2cccc3cccc(c23)C(=O)N1CCNCCOc1ccc2c(c1)OCO2 |  | 3 µM | 
24 | NCCN1C(=O)c2cccc3cccc(c23)C1=O |  | 2.09 µM | 
25 | O=C1c2cccc3cccc(c23)C(=O)N1CCNCCOc1ccc([N+](=O)[O-])cc1 | < 50% |  | 
26 | COc1cccc(CNCCN2C(=O)c3cccc4cccc(c34)C2=O)c1 |  | 6.22 µM | 
27 | COc1ccc(OCCCNCCN2C(=O)c3cccc4cccc(c34)C2=O)cc1 |  | 1.23 µM | 
28 | COc1ccc(CNCCN2C(=O)c3cccc4cccc(c34)C2=O)cc1 |  | 0.63 µM | inhibition [5]: Active
29 | COc1cccc(OCCNCCN2C(=O)c3cccc4cccc(c34)C2=O)c1 |  | 0.93 µM | 
30 | COc1ccc(SCCNCCN2C(=O)c3cccc4cccc(c34)C2=O)cc1 |  | 1.13 µM | 
31 | COc1ccccc1OCCNCCN1C(=O)c2cccc3cccc(c23)C1=O |  | 1.35 µM | 
